This test has as its target Met (Homo sapiens, UniProt P08581). Nature of the test: MET Luminescence-based Enzyme Assay (Kinase-Glo). The format is biochemical. On the set-up: Sf9 insect cell culture expressing the kinase domain of human Met; 6x Histidine tag (TEV-cleavable) (cleaved yes); made in house; host or cells: Sf9 insect cells. From the text: Homogeneous luminescence-based inhibitor screening assays were developed for c-Abl, MET, AurA, and PDK1 kinases (among others). Each of these assays made use of an ATP depletion assay (Kinase-Glo™, Promega Corporation, Madison, Wis.) to quantitate kinase activity. The Kinase-Glo™ format uses a thermostable luciferase to generate luminescent signal from ATP remaining in solution following the kinase reaction. The luminescent signal is inversely correlated with the amount of kinase activity.
Dose response was analyzed using the equation: y=min+{(max−min)/(1 +10^[compound]-logIC50)}, where y is the observed initial slope, max=the slope in the absence of inhibitor, min=the slope at infinite inhibitor, and the IC50 is the [compound] that corresponds to ½ the total observed amplitude (Amplitude=max−min).
The cell pellets produced from half of a 12 L Sf9 insect cell culture expressing the kinase domain of human Met were resuspended in a buffer containing 50 mM Tris-HCl pH 7.7 and 250 mM NaCl, in a volume of approximately 40 ml per 1 L of original culture. One tablet of Roche Complete, EDTA-free protease inhibitor cocktail (Cat# 1873580) was added per 1 L of original culture. The suspension was stirred for 1 hour at 4° C. Debris was removed by centrifugation for 30 minutes at 39,800×g at 4° C. The supernatant was decanted into a 500 ml beaker and 10 ml of 50% slurry of Qiagen Ni-NTA Agarose (Cat# 30250) that had been pre-equilibrated in 50 mM Tris-HCl pH 7.8, […], 10% Glycerol, 10 mM Imidazole, and 10 mM Methionine, were added and stirred for 30 minutes at 4° C. The sample was then poured into a drip column at 4° C. and washed with 10 column volumes of 50 mM Tris-HCl pH 7.8, 500 mM NaCl, 10% Glycerol, 10 mM Imidazole, and 10 mM Methionine. The protein was eluted using a step gradient with two column volumes each of the same buffer containing 50 mM, 200 mM, and 500 mM Imidazole, sequentially. The 6× Histidine tag was cleaved overnight using 40 units of TEV protease (Invitrogen Cat# 10127017) per 1 mg of protein while dialyzing in 50 mM Tris-HCl pH 7.8, 500 mM NaCl, 10% Glycerol, 10 mM Imidazole, and 10 mM Methionine at 4° C. The 6× Histidine tag was removed by passing the sample over a Pharmacia 5 ml IMAC column (Cat# 17-0409-01) charged with Nickel and equilibrated in 50 mM Tris-HCl pH 7.8, 500 mM NaCl, 10% Glycerol, 10 mM Imidazole, and 10 mM Methionine. The cleaved protein bound to the Nickel column at a low affinity and was eluted with a step gradient. The step gradient was run with 15% and then 80% of the B-side (A-side=50 mM Tris-HCl pH 7.8, 500 mM NaCl, 10% Glycerol, 10 mM Imidazole, and 10 mM Methionine; B-side=50 mM Tris-HCl pH 7.8, 500 mM NaCl, 10% Glycerol, 500 mM Imidazole, and 10 mM Methionine) for 4 column volumes each. The Met protein eluted in the first step (15%), whereas the non-cleaved Met and the cleaved Histidine tag eluted in the 80% fractions. The 15% fractions were pooled after SDS-PAGE gel analysis confirmed the presence of cleaved Met; further purification was done by gel filtration chromatography on an Amersham Biosciences HiLoad 16/60 Superdex 200 prep grade (Cat# 17-1069-01) equilibrated in 50 mM Tris-HCl pH 8.5, 150 mM NaCl, ˜10% Glycerol and 5 mM DTT. The cleanest fractions were combined and concentrated to ˜10.4 mg/ml by centrifugation in an Amicon Ultra-15 10,000 Da MWCO centrifugal filter unit (Cat# UFC901024).
MET Luminescence-based Enzyme Assay
Materials: Poly Glu-Tyr (4:1) substrate (Sigma Cat# P-0275), ATP (Sigma Cat#A-3377, FW=551), HEPES buffer, pH 7.5, Bovine serum albumin (BSA) (Roche 92423420), MgCl2, Staurosporine (Streptomyces sp. Sigma Cat#85660-1MG), white Costar 384-well flat-bottom plate (VWR Cat#29444-088). MET kinase (see below), Kinase-Glo™ (Promega Cat#V6712).
Stock Solutions: 10 mg/ml poly Glu-Tyr in water, stored at −20° C.; 100 mM HEPES buffer, pH 7.5 (5 ml 1M stock+45 ml miliQH2O); 10 mM ATP (5.51 mg/ml in dH2O) stored at −20° C. […]

Structures are written as SMILES. Where only a bound is given, the exact number is not on record here.

Data on twelve compounds can be found in patent US20070173488A1, “Pyrazolothiazole Protein Kinase Modulators” (SGX Pharmaceuticals, Inc., priority 2005, published 2007).

Met, sequence (P08581 1078-1345 limits assumed): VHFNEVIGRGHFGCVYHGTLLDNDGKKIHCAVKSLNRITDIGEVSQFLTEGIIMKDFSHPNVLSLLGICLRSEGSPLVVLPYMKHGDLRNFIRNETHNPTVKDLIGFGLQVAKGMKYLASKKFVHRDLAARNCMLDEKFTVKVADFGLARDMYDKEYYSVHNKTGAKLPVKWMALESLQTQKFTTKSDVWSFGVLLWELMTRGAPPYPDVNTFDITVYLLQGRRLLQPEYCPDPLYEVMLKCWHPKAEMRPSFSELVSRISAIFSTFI

Turning to `O=C(Nc1nc2[nH]nc(-n3cncc3-c3cccc(F)c3F)c2s1)C1CC1` [Cyclopropanecarboxylic acid {3-[5-(2,3-difluoro-phenyl)-imidazol-1-yl]-1H-pyrazolo[3,4-d]thiazol-5-yl}-amide], the IC50 (as a rule, the point on the concentration scale where inhibition reaches its midpoint) was 1 to 10 µM.
`O=C(Nc1nc2[nH]nc(-n3cncc3-c3ccccc3)c2s1)C1CC1` [Cyclopropanecarboxylic acid [3-(5-phenyl-imidazol-1-yl)-1H-pyrazolo[3,4-d]thiazol-5-yl]-amide] yielded an IC50 of more than 10 µM.
As for `O=C(Nc1nc2[nH]nc(-n3cncc3-c3c(Cl)cccc3Cl)c2s1)C1CC1` [Cyclopropanecarboxylic acid {3-[5-(2,6-dichloro-phenyl)-imidazol-1-yl]-1H-pyrazolo[3,4-d]thiazol-5-yl}-amide], the IC50 was in the range of 1 to 10 µM.
Then `O=C(Nc1cc[nH]n1)Nc1nc2[nH]nc(-n3cncc3-c3ccccc3Cl)c2s1` [1-{3-[5-(2-Chloro-phenyl)-imidazol-1-yl]-1H-pyrazolo[3,4-d]thiazol-5-yl}-3-(1H-pyrazol-3-yl)-urea], with more than 10 µM.
`O=C(Nc1nc2[nH]nc(-n3cncc3-c3ccc4ccccc4c3)c2s1)C1CC1` [Cyclopropanecarboxylic acid [3-(5-naphthalen-2-yl-imidazol-1-yl)-1H-pyrazolo[3,4-d]thiazol-5-yl]-amide] displayed a half-maximal inhibitory concentration (IC50) of 1 to 10 µM.
As to `O=C(Nc1nc2[nH]nc(-n3cncc3-c3ccccn3)c2s1)C1CC1` [Cyclopropanecarboxylic acid [3-(5-pyridin-2-yl-imidazol-1-yl)-1H-pyrazolo[3,4-d]thiazol-5-yl]-amide], the IC50 is more than 10 µM.
To `O=C(Nc1nc2[nH]nc(-n3cncc3-c3cc(Cl)cc(Cl)c3Cl)c2s1)C1CC1` [Cyclopropanecarboxylic acid {3-[5-(2,3,5-trichloro-phenyl)-imidazol-1-yl]-1H-pyrazolo[3,4-d]thiazol-5-yl}-amide] belongs 1 to 10 µM.
`O=C(Nc1nc2[nH]nc(-n3cncc3-c3c(Cl)ccc(Cl)c3Cl)c2s1)C1CC1` [Cyclopropanecarboxylic acid {3-[5-(2,3,6-trichloro-phenyl)-imidazol-1-yl]-1H-pyrazolo[3,4-d]thiazol-5-yl}-amide] had an IC50 of 1 to 10 µM.
For `O=C(Nc1nc2[nH]nc(-n3cncc3-c3ccccc3Cl)c2s1)C1CC1` [Cyclopropanecarboxylic acid {3-[5-(2-chloro-phenyl)-imidazol-1-yl]-1H-pyrazolo[3,4-d]thiazol-5-yl}-amide], the 50% inhibitory concentration (IC50) is 0.1 to 1 µM.
As to `CS(=O)(=O)c1ccc(F)cc1-c1cncn1-c1n[nH]c2nc(NC(=O)C3CC3)sc12` [Cyclopropanecarboxylic acid {3-[5-(5-fluoro-2-methanesulfonyl-phenyl)-imidazol-1-yl]-1H-pyrazolo[3,4-d]thiazol-5-yl}-amide], the IC50 was more than 10 µM.
In turn, `COc1ccc2nc(Cl)c(-c3cncn3-c3n[nH]c4nc(NC(=O)C5CC5)sc34)cc2c1` [Cyclopropanecarboxylic acid {3-[5-(2-chloro-6-methoxy-quinolin-3-yl)-imidazol-1-yl]-1H-pyrazolo[3,4-d]thiazol-5-yl}-amide] showed an IC50 of 0.1 to 1 µM.
The compound `NC(=O)COc1ccc(-c2cncn2-c2n[nH]c3nc(NC(=O)C4CC4)sc23)c(Cl)c1` [Cyclopropanecarboxylic acid {3-[5-(4-carbamoylmethoxy-2-chloro-phenyl)-imidazol-1-yl]-1H-pyrazolo[3,4-d]thiazol-5-yl}-amide] showed an IC50 of 0.1 to 1 µM.
